Source: patent US10105414B2, “Peptides derived from RS1 which down-regulate glucose absorption after a glucose rich meal and increase insulin sensitivity” (Julius-Maximilians-Universität Würzburg, priority 2014, dated 2018)
Substitutions are numbered along the chain they refer to. Numbers in names are those of the source. Like-named read-outs stand apart in the source and are kept apart here.

Legend:
[1] = tested on: hCNT3; experiment: hCNT3-mediated uridine uptake in Xenopus laevis oocytes after injection of peptides; type: cell-based, human; settings: low intracellular glucose, no AMG injected
Experimental: FIG. 9. […] Posttransciptional downregulation of hCNT1 and hCNT3 was measured without injection of AMG. […] One hour later uptake of 5 μM [^3H]uridine was measured.
(§1) Before uptake measurements were started, 50 nl of K-Ori buffer containing peptides, polypeptides, 1 pM of calmodulin stimulated kinase 2 (CK2) inhibitor KN93 (Calbiochem San Diego. Calif.), 3 mM of the omithinedecarboxlase inhibitor difluoromethylornithine DFMO and/or or 100 pmol α-methyl-α-D-glucopyranoside (AMG) were injected and the oocytes were incubated for 1 h at room temperature. Uptake was measured in Ori buffer at room temperature. Measurements in transporter expressing oocytes were corrected for measurements in noninjected oocytes. Uptake of 50 μM [^14C]AMG was measured after 15 min incubation and washing in ice-cold Ori buffer containing 1 mM phlorizin. Uptake of 5 μM [^3H]uridine was measured after 15 min incubation and washing in ice-cold Ori buffer. Oocytes were solubilized in 5% (w/v) SDS and analyzed for radioactivity by scintillation counting.

[2] = tested on: hCNT1; experiment: hCNT1-mediated uridine uptake in Xenopus laevis oocytes after injection of peptides; type: cell-based, human; settings: no AMG injected; for uptake of 5 μM [3H]uridine expressed by hCNT1: low intracellular glucose
Experimental: (§2) Selected oocytes were injected with 50 nl of water containing cRNAs (2.5 ng of hSGLT1 or 0.5 ng of hCNT1). For expression oocytes were incubated for 2-3 days at 16° C. in modified Barth's solution with gentamycin. Noninjected control oocytes were incubated in parallel.
as §1
(§3) For comparison of mean values from 2 groups the Student's t-test for unpaired samples was employed.

[3] = tested on: hSGLT1; experiment: hSGLT1-mediated AMG uptake in Xenopus laevis oocytes 1 h after injection of peptides; type: cell-based, human; settings: for down-regulation of hSGLT1: without injection of AMG (<10 μM); for affinity for down-regulation of hSGLT1 compared with hRS1-Reg wildtype: low intracellular glucose; for effect of intracellular AMG on the affinity for down-regulation of hSGLT1: without versus with injection of AMG
Experimental: as §2, §1, §3

[4] = tested on: hSGLT1; settings: cited from earlier work
[5] = tested on: mSGLT1; settings: RS1−/− mice starved over night; gavage 20 μmol per mouse; after 2 h
Experimental: (§4) For measurement of SGLT1 mediated glucose uptake, the everted segments of mouse small intestine or defined areas of human mucosa were incubated for 2 min at 37° C. with Krebs-Ringer buffer containing 10 μM [^14C]AMG with or without 0.2 mM phlorizin. Uptake was stopped by transferring the segments into ice cold Krebs-Ringer buffer containing 0.2 mM phlorizin for 5 min. After washing with ice cold Krebs-Ringer buffer the intestinal segments or pieces of human mucosa were dissolved in 0.5 ml Soluence-350) (Perkin Elmer Inc. Waltham Mass., USA). Radioactivity was analysed by liquid scintillation counting. Phlorizin inhibited AMG uptake per cm length or per standard area of the mucosa was calculated.
After 2 h the animals were killed, their small intestines were everted and phlorizin inhibited uptake of 10 μM [^14C]AMG Into segments of the everted jejunum was measured (FIG. 12A).

[6] = tested on: mSGLT1; settings: 5 mM tripeptide, 30 min, 37° C., 5 mM D-glucose
Experimental: (§5) Standardised t areas of human small intestinal mucosa (FIGS. 13,19) or 1 cm segments of everted mouse small intestine (FIGS. 14,15,20) were washed three times at 37° C. with Krebs-Ringer buffer containing 5 mM D-glucose and incubated for 30 min at 37° C. in Krebs-Ringer buffer containing 5 mM D-glucose plus different concentrations of tripeptides. Thereafter the tissue was washed three times at 0° C. in Krebs-Ringer buffer without glucose and uptake measurements were performed.
as §4
Thereafter the segments were washed with PBS buffer and phlorizin inhibited uptake of 10 μM [^14C]AMG was measured.

[7] = tested on: hSGLT1; settings: 5 mM D-glucose, 30 min
Experimental: Jejunal segments which were routinely dissected during bariatric operations of highly obese patients were stored for 1-3 h on ice in Dulbecco's modified Eagle's medium containing 5 mM D-glucose. The mucosa was isolated and circular areas of the mucosa were dissected using a punching instrument.
as §5, §4
Next, it was investigated which of the QXP-type tripeptides are capable to downregulate hSGLT1 expression in human small intestine in the presence of high glucose. Jejunal samples that were obtained during bariatric surgery of obese patients (males and females with a mean age of 50 years with a mean body mass index of 50) were used. […] A part of the jejumum which is routinely removed during bariatric surgery, was carried to the laboratory using ice-cold culture medium containing 6 mM D-glucose. Part of the mucosa was dissected and identical areas of the mucosa were isolated using a punching instrument. The mucosal pieces were washed with glucose free buffer and incubated for 30 min at 37° C. in tissue culture medium (pH 6.4) containing 5 mM D-glucose and different QXP-type tripeptides. Thereafter the sample were washed two times with PBS buffer (pH 7.4, 37° C.) and incubated for 2 min at 37° C. in PBS (pH 7.4) containing 100 mM sodium and 10 μM [^14C]AMG. The incubation was performed in the absence and presence of 200 μM of the SGLT1 inhibitor phlorizin. Thereafter the samples were washed with ice-cold PBS, the tissue was dissolved, and radioactivity was determined by liquid scintillation counting. The phorizin inhibited AMG uptake was calculated.

[8] = tested on: mSGLT1; experiment: Phlorizin inhibited AMG uptake into everted small intestine after gavage of mice with mRS1-Reg coupled to hydrogel nanoparticles; type: in vivo, mouse; settings: gavage 1 nmol coupled to nanoparticles, 2 h
Experimental: Inversed miniemulsions were prepared from 2.5 ml hexane containing 50.3 mg Span 80 (Sigma, Taufkirchen, Germany) and 16.7 mg TWEEN 80™ (Sigma) and 0.4 ml 20 mM Hepes pH 7.4 containing 100 mg of thiol-functionalized linear poly(glycidol) polymer (Groll (2009) Journal of Polymer Science 47,5543-5549), 0.5 mg […] (TAT-peptide, Peptides International, Louisville, Ky., USA), and 0.28 mg cysteine-terminated RS1-Reg peptide. In control nanohydrogels the RS1-Reg peptide was omitted. The nanogels were prepared as described (Groll (2009) Journal of Polymer Science 47,5543-5549). Shortly, the organic and aqueous phase were combined, stirred, and a miniemulsion was prepared by ultrasonication at 0° C. For formation of disulphide bridges 60 μL of 0.1 M H2O2 in water were added. The mixture was sonicated for 60 s and incubated for 25 min at room temperature. Oxidation was quenched by acidification and the nanogels were separated by centrifugation. The aqueous layer containing the nanogels was separated and washed four times with a tetrahydrofuran/water (20%/80%)-mixture to remove the surfactants and unreacted polymer. Remaining organic solvents and acid were removed by dialysis against water. The nanohydrogel suspension was stored up to two weeks stored at 4° C.
Male Rs1−/− mice or wildtype mice (Osswald (2005) Mol Cell Biol. 25, 78-87) kept on standard diet were starved over night and gavaged with 200 μl water (adjusted with HCl to pH 5.5) containing 10 mg nanohydrohydrogel that was loaded with 45 μg mRS1-Reg mutant. As a control unloaded nanohydrogel was used. […] The jejunum was cut into 1 cm long segments.
Radioactivity was analysed by liquid scintillation counting.
RS1−/− mice starved overnight were gavaged with 200 μl empty NPs (control) or 200 μl NPs loaded with 1 nmol mRS1-Reg(S19A) or 1 nmol mRS1-Reg(S19E). […] 2 h after gavage with mRS1-Reg mutants coupled to NPs, phlorizin (200 μM) Inhibited uptake of 10 μM AMG labelled containing tracer [^14C]AMG after 2 min incubation at 37° C. (FIG. 21A, C) or uptake of 1 mM AMG labelled with tracer [^14C]AMG after 2 min incubation at 37° C. was measured (FIG. 21B, D). […] Since AMG is rapidly transported by mSGLT1 into the enterocytes the intracellular concentration increases within seconds to values higher than 0.25 mM when the cells were incubated with 1 mM AMG. […] In contrast phlorizin-inhibited uptake of 10 μM AMG or 1 mM AMG was inhibited by 26 and 30% respectively. […] The data further indicate that gavage of a mouse with 1 nmol mRS1-Reg(S19E) is sufficient to downregulate SGLT1 in the presence of low and high intracelluar glucose.

[9] = 5 pM, intracellular AMG ~0.25 mM

SDSDRIEP [octapeptide corresponding to a particular motif of human RS1, reference compound]
uptake of 5 μM [3H]uridine expressed by hCNT3 [1]: decreased
uptake of 5 μM [3H]uridine expressed by hCNT1 [2]: decreased

glutamine-serine-proline [QSP, reference compound]
uptake of 5 μM [3H]uridine expressed by hCNT3 [1]: not able to inhibit
inhibition of SGLT1 mediated transport ([3]; 50 nM tripeptide, no AMG injected): inhibition
effect on hSGLT1 expression ([3]; 250 μM intracellular AMG): abolished
IC50 ([3]; without injection of AMG (intracellular AMG <10 μM), read-out: IC50 for down-regulation of hSGLT1-mediated AMG uptake): 0.2 nM
inhibition of hSGLT1 expression in oocytes ([4]; 200 nM QSP, intracellular AMG <10 μM): 40-50%
inhibition of hSGLT1 expression in oocytes after injection of AMG ([4]; 200 nM QSP, intracellular AMG higher than 250 μM): abolished
down-regulation of hSGLT1 at raised intracellular AMG ([4]; intracellular AMG higher than 0.1 mM): blunted
decrease of phlorizin inhibited uptake of 10 μM [14C]AMG into everted jejunum [5]: no significant effect
decrease of SGLT1 mediated uptake of 10 μM [14C]AMG ([6]; wildtype mice): no significant effect
uptake of 5 μM [3H]uridine expressed by hCNT1 [2]: not able to inhibit

glutamine-serinethiophosphate-proline [QSthiophosphateP]
down-regulation of hSGLT1 mediated AMG uptake ([7]; 5 mM): ~30%
down-regulation of hSGLT1 mediated AMG uptake ([7]; 15 mM): ~40%
degree of down-regulation of hSGLT1 [3, 9]: ~75%
down-regulation of hSGLT1 expression [3, 9]: down-regulated
down-regulation of hSGLT1 ([3]; 5 pM): not
down-regulation of hSGLT1 expression ([3]; 500 pM, intracellular AMG ~0.25 mM): down-regulated
down-regulation of hSGLT1 ([3]; 500 pM): down-regulated
decrease of SGLT1 mediated uptake of 10 μM [14C]AMG ([6]; RS1−/− mice): significantly inhibited
decrease of SGLT1 mediated uptake of 10 μM [14C]AMG ([6]; wildtype mice): significantly inhibited

B1: hRS1-Reg(S45A): hRS1-Reg with serine 45 replaced by alanine to prevent phosphorylation (protein)
chain: SSGQSPDVGNPMSLARSVSASVCPIKPSDADRIEPKAVKALKASAEFQLNSEKKEHLSLQDLSDHASSADHAPTDQSPAMPMQ
modifications: left off: small tags and cut ends
notes: hRS1-Reg with serine 45 replaced by alanine to prevent phosphorylation
affinity for down-regulation of hSGLT1 compared with hRS1-Reg wildtype ([3]; no AMG injected): similar
effect of intracellular AMG on the affinity for down-regulation of hSGLT1 [3]: abolished

B2: hRS1-Reg(S45E): hRS1-Reg with serine 45 replaced by glutamate to mimick phosphorylation (protein)
chain: B1 chain with A30E
modifications: left off: small tags and cut ends
notes: hRS1-Reg with serine 45 replaced by glutamate to mimick phosphorylation
affinity for down-regulation of hSGLT1 compared with hRS1-Reg wildtype ([3]; no AMG injected): increases affinity
effect of intracellular AMG on the affinity for down-regulation of hSGLT1 [3]: abolished
affinity for down-regulation of hCNT1 compared with hRS1-Reg wildtype [2]: similar
effect of mimicking phosphorylation in position 45 on affinity for down-regulation of hCNT1 [2]: decreases affinity

B3: hRS1-Reg(S20A): hRS1-Reg mutant preventing phosphorylation at serine in position 20 (protein)
chain: B1 chain with S5A, A30S
modifications: left off: small tags and cut ends
affinity for down-regulation of hSGLT1 compared with hRS1-Reg wildtype ([3]; no AMG injected): does not alter the affinity

B4: hRS1-Reg(S20E): hRS1-Reg, the first/N-terminal QSP motive is replaced by QEP (SEQ ID No. 9) (protein)
chain: B1 chain with S5E, A30S
modifications: hRS1-Reg(S20E)
affinity for down-regulation of hSGLT1 higher than hRS1-Reg wildtype ([3]; high intracellular glucose (AMG ~250 μM)): 15 Mill
increase of affinity (decrease of IC50) for down-regulation of hSGLT1 at high versus low intracellular AMG ([3]; intracellular AMG ~250 μM versus low): 300 fold

B5: mRS1-Reg(S19E): mRS1-Reg, first/N-terminal QSP motive replaced by QEP (SEQ ID No. 10), coupled to hydrogel nanoparticles for gavage (protein)
chain: PSGQEPEVGSPTSLARSVSASVCAIKPGDPNSIESLAMEATKASAEFQTNSKKTDPPPLQVLPDLASSAEQSLAMPFH
modifications: coupled to hydrogel nanoparticles; mRS1-Reg(S19E)
inhibition of phlorizin-inhibited uptake of 10 μM AMG ([8]; RS1−/− mice): 26%
inhibition of phlorizin-inhibited uptake of 1 mM AMG ([8]; RS1−/− mice): 30%
decrease of uptake of 1 mM AMG (high intracellular glucose) ([8]; wild type mice): 40%
uptake of 10 μM AMG (low intracellular glucose) ([8]; wild type mice): not altered
